Experimental findings from US20160257697A1, “THIOPHENE-SUBSTITUTED TETRACYCLIC COMPOUNDS AND METHODS OFUSE THEREOF FOR THE TREATMENT OF VIRAL DISEASES” (priority 2013, published 2016) are described below.

Like-named read-outs stand apart in the source and are kept apart here.

Holding throughout (test): microbe, parasite or virus in culture
Holding throughout (assay type): cell-based, Hepatitis C virus (HCV)

Test [1] relates to HCV replicon 2B. The conditions noted are these: Replicon Assay A. The gist of the method:
(§1)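 Compound is added to replicon cells plated at 2000 cells/well (0.5% DMSO, 5% FBS). After 3 days the cells are washed and lysed, and HCV RNA and cyclophilin mRNA are quantified by multiplex RT-PCR against a standard curve of known replicon total RNA.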
For orientation: Replicon systems follow genome replication, usually without infectious particles.

Test [2] deals with HCV replicon 1A. The conditions noted are these: Replicon Assay A. Summed up:
as §1

The subject of test [3] is HCV replicon 1AY93H. The conditions noted are these: Replicon Assay A. The gist of the method: as §1
Test [4] has as its system HCV replicon 1B. The conditions noted are these: Replicon Assay B.
Test [5] concerns HCV replicon 1AQ30D. The conditions noted are these: Replicon Assay B.
Where [6] appears, read: Hepatitis C virus, read-out: 2B IC50 (nM), replicon 2B.
[7] abbreviates: Hepatitis C virus, read-out: 1A Y93H IC50 (nM), replicon 1AY93H.
The mark [8] stands for this setting: Hepatitis C virus, read-out: 1A Q30D IC50 (nM), replicon 1AQ30D.
Setting [9] is: Hepatitis C virus, read-out: 2B IC50, HCV replicon 2B.
[10] abbreviates: Hepatitis C virus, HCV replicon 1A.
[11] abbreviates: Hepatitis C virus, read-out: 1A Y93H IC50, HCV replicon 1A Y93H.
The mark [12] stands for this setting: Hepatitis C virus, HCV replicon 1B.
The mark [13] stands for this setting: Hepatitis C virus, read-out: 1A Q30D IC50, HCV replicon 1A Q30D.

Broadly, the IC50 is the concentration at which inhibition is half-maximal.

For the molecule `COC(=O)N[C@H](C(=O)N1CCC[C@H]1c1ncc(-c2cc(F)c3c(c2)OC(c2ccc(C4CC4)s2)n2c-3cc3cc(-c4cnc([C@@H]5CCCN5C(=O)[C@@H](NC(=O)OC)C5C[C@@H](C)O[C@@H](C)C5)[nH]4)ccc32)[nH]1)C1C[C@@H](C)O[C@@H](C)C1` (stereo partly shown) [Compound 303], the IC50 stood at 0.003 nM in test [1] (setting [6]); 2.6 pM in test [2] (Hepatitis C virus, replicon 1A); 0.002 nM in test [3] (setting [7]); 1.3 pM in test [4] (Hepatitis C virus, replicon 1B); 0.008 nM in test [5] (setting [8]).
Turning to `COC(=O)NC(C(=O)N1CCC[C@H]1c1ncc(-c2ccc3c(c2)cc2n3C(c3ccc(CC4CC4)s3)Oc3cc(-c4cnc([C@@H]5CCCN5C(=O)[C@@H](NC(=O)OC)C(C)C)[nH]4)cc(F)c3-2)[nH]1)C1CCO[C@H](C)C1` (stereo partly shown) [Compound 368], the IC50 in test [1] (read-out: 2B IC50, replicon 2B) was found to be 0.0028 nM; in test [2] (replicon 1A), 2.6 pM; in test [3] (read-out: 1A Y93H IC50, replicon 1AY93H), 0.0047 nM; in test [4] (replicon 1B), 3.1 pM; in test [5] (read-out: 1A Q30D IC50, replicon 1AQ30D), 0.0304 nM.
In the case of `COC(=O)NC(C(=O)N1CCC[C@H]1c1ncc(-c2ccc3c(c2)cc2n3C(c3ccc(C4CCC4)s3)Oc3cc(-c4cnc([C@@H]5CCCN5C(=O)[C@@H](NC(=O)OC)C(C)C)[nH]4)cc(F)c3-2)[nH]1)C1C[C@@H](C)O[C@@H](C)C1` (stereo partly shown) [Compound 374], the IC50 in test [1] (setting [6]) was 0.0041 nM; in test [2] (Hepatitis C virus, replicon 1A), 1.5 pM; in test [3] (setting [7]), 0.0035 nM; in test [4] (Hepatitis C virus, replicon 1B), 2.2 pM; in test [5] (setting [8]) it was 0.0221 nM.
With `COC(=O)NC(C(=O)N1CCC[C@@H]1c1ncc(-c2ccc3c(c2)cc2n3C(c3ccc(CC4CC4)s3)Oc3cc(-c4cnc([C@@H]5CCCN5C(=O)[C@@H](NC(=O)OC)C(C)C)[nH]4)cc(F)c3-2)[nH]1)C1C[C@@H](C)O[C@@H](C)C1` (stereo partly shown) [Compound 376], the IC50 is 0.006 nM in test [1] (setting [6]); 2.6 pM in test [2] (Hepatitis C virus, replicon 1A); 0.0023 nM in test [3] (setting [7]); 2.9 pM in test [4] (Hepatitis C virus, replicon 1B); 0.0424 nM in test [5] (setting [8]).
On the same counts, the results for `COC(=O)N[C@H](C(=O)N1CCC[C@@H]1c1ncc(-c2ccc3c(c2)cc2n3C(c3ccc(C4CC4)s3)Oc3cc(-c4cnc([C@@H]5CCCN5C(=O)[C@H](NC(=O)OC)C(C)(C)F)[nH]4)cc(F)c3-2)[nH]1)C1C[C@@H](C)O[C@@H](C)C1` (stereo partly shown) [Compound 380] are 0.0056 nM, 3 pM, 0.0052 nM, 2.4 pM and 0.022 nM.
On to `COC(=O)NC(C(=O)N1CCC[C@H]1c1ncc(-c2ccc3c(c2)cc2n3C(c3ccc(C(F)(F)F)s3)Oc3cc(-c4cnc([C@@H]5CCCN5C(=O)[C@@H](NC(=O)OC)C(C)C)[nH]4)cc(F)c3-2)[nH]1)C1C[C@@H](C)O[C@@H](C)C1` (stereo partly shown) [Compound 650], for which the IC50 was determined as 0.005 nM in test [1] (setting [9]); 2 pM in test [2] (setting [10]); 0.0057 nM in test [3] (setting [11]); 1.4 pM in test [4] (setting [12]); 0.0458 nM in test [5] (setting [13]).
On the same counts, the results for `COC(=O)N[C@H](C(=O)N1CCC[C@H]1c1ncc(-c2cc(F)c3c(c2)OC(c2ccc(C4CC4)s2)n2c-3cc3cc(-c4cnc([C@@H]5C[C@@H](F)CN5C(=O)[C@@H](NC(=O)OC)C(C)C)[nH]4)ccc32)[nH]1)C(C)C` (stereo partly shown) [Compound 757] are 2.4 nM, 2.7 pM, 0.013 nM, 3 pM and 2.85 nM.
In the case of `COC(=O)NC(C(=O)N1CCC[C@H]1c1ncc(-c2ccc3c(c2)cc2n3C(c3ccc(CC(C)(C)OC)s3)Oc3cc(-c4cnc([C@@H]5CCCN5C(=O)[C@@H](NC(=O)OC)C(C)C)[nH]4)cc(F)c3-2)[nH]1)C1CCOC(C)(C)C1` (stereo partly shown) [Compound 848], the IC50 turned out to be 0.026 nM in test [1] (setting [9]); 2.9 pM in test [2] (setting [10]); 0.01 nM in test [3] (setting [11]); 4.5 pM in test [4] (setting [12]); 0.085 nM in test [5] (setting [13]).
